Measured values from ChEMBL document CHEMBL1142594, “Antioxidative constituents of Etlingera elatior” (J Nat Prod, 2005).

Test: Antioxidant activity assessed as inhibition of lipid peroxidation at 300 uM by ferric thiocyanate method
Assay type: functional

First: O=C(/C=C/C=C/C=C/c1ccc(O)cc1)c1ccc(O)cc1
Second: O=C(/C=C/C=C/c1ccc(O)cc1)/C=C/c1ccc(O)cc1
The inhibition of the first is higher: 93.7% for the first, 92.1% for the second.

First: COc1cc(/C=C/C(O)=C/C(=O)/C=C/c2ccc(O)cc2)ccc1O
Second: Cc1c(C)c2c(c(C)c1O)CC[C@@](C)(CCC[C@H](C)CCC[C@H](C)CCCC(C)C)O2
The inhibition of the first is higher: 92.5% for the first, 69.5% for the second.
